Assay results reported in US4617394A, “4-methyl-5-(unsubstituted and substituted phenoxy)-2,6-dimethoxy-8-(aminoalkylamino) quinolines” (priority 1985, dated 1986).
Entries after “also recorded” stand apart in the source; their conditions may differ. Structures can show the parent of a compound that is named as a salt. Where two headings read alike, the source gives them in different places.

Columns and labels:
[1] = test system: Plasmodium berghei KBG 173; test: animal or person; format: in vivo, young ICR/HA Swiss mice; conditions: for Activity in words / Toxicity in words: Rane, 20-640 mg/kg; for Activity in words / Toxicity in words / ΔMST: 5 mice; for minimal effective dose: Plasmodium berghei, in Mus musculus; for suppressive activity in words: Rane mouse test
Text: Blood Schizonticidal Test (Mouse), University of Miami, Rane (suppressive)
This system is based on comparisons of responses to test compounds by Plasmodium berghei KBG 173 malaria in mice as expressed in mean survival times and the mean survival times of untreated controls. Thus, compounds noted as active produce increases in the survival times of the treated animals that are significant when compared with the survival times of untreated controls. Since an established disease is less sensitive to treatment than a disease in the early stages of development, treatment is withheld until the parasitemia is relatively high in order to insure a more reliable assay of activity and the selection of appropriate compounds for intensive preclinical studies.
Utilizing young ICR/HA Swiss mice and a standard inoculum of Plasmodium berghei KBG 173, it is possible to produce a uniform disease fatal to 100% of untreated animals within 6 to 8 days with a mean survival time of 6.2 days. Test animals weigh from 18 to 22 grams but weight variations in any given experimental or control group are confined to 2 to 3 grams. All animals in any given test are approximately of the same age. Animals on test are housed in metal-topped plastic cages, given a standard laboratory diet and water ad libitum.
Test animals receive an intraperitoneal injection of 0.5 ml of 1:100 dilution of heparinized heart's blood with a minimum of 90% parasitized cells (4×10^7 cells), drawn from donor mice infected one week earlier with Plasmodium berghei. The donor strain is maintained by weekly passages in separate groups of mice inoculated with a 0.5 ml of 1:500 dilution of heparinized heart's blood.
Test compounds are administered after dissolution or suspension in peanut oil. A single dose is given subcutaneously 72 hours after the mice are infected with Plasmodium berghei. At this time a 10-15 percent parasitemia has developed; the disease is well established but has not produced sufficient debility to alter the response of the host to toxic effects of the drug on test. Since treatment is withheld for three days to permit the infection to become well established and death occurs in untreated controls within 6 to 8 days, it is believed that this system presents a candidate compound with the maximum challenge. In order to check factors such as changes in the infectivity of Plasmodium berghei or in the susceptibility of the host or to detect technical errors, a group of infected animals treated with pyrimethamine at dose levels producing definite increases in survival time is included as a positive control in every experiment.
In each experiment test compounds are administered in graded doses. […] However, if an active drug is toxic for the host, its toxicity may become a limiting factor; continued increases in dose levels also increase the toxic effects and may result in the diminution of survival times. Deaths prior to the sixth day, when untreated controls begin to die, are regarded as non-parasitic and become the basis for the interpretation that the drug is toxic. Treated animals are kept under observation for 60 days. Survivors at the end of this period of time are considered as cured.
An increase of 100% in mean survival time is considered the minimum effective response for a candidate compound. In calculating mean survival time, toxic deaths and 60 day survivors are not included.

[2] = test system: Plasmodium cynomolgi (strain B); test: Radical Curative Test in Rhesus Monkeys, SEATO Medical Research Laboratory; format: in vivo, Indian rhesus monkeys; conditions: for Radical Curative Activity, Cures (C): Table 1, Seato Rhesus; for Cures (C): Table 8, Seato
Experimental: Radical Curative Test in Rhesus Monkeys, SEATO Medical Research Laboratory, Bangkok,
This test is designed to evaluate the tissue schizonticidal (radical curative) activity of test compounds. Well-conditioned Indian rhesus monkeys of either sex weighing 2-4 Kg are utilized. Plasmodium cynomolgi (strain B) sporozoites are prepared by grinding heavily infected Anopheles dirus salivary glands in 1:1 monkey serum-saline vehicle.
Monkeys are infected by I.V. injection of 10^6 freshly isolated P. cynomolgi sporozoites on day 0. A rapidly rising parasitemia develops after a 7 to 9 day prepatient period, and administration of the test drug is initiated when the rising parasite count exceeds 5000 per mm^3 (typically day 10-12). Test drugs are administered orally (by nasogastric intubation) once daily for 7 consecutive days in aqueous solution or, if insoluble, in suspension in 0.3% methylcellulose solution. Chloroquine diphosphate (3.1 mg of base/kg orally per day) is always administered concurrently with the test drug for 7 days to eliminate blood schizonts. Thus any tissue schizonticidal activity of the test drug will always be apparent even if it lacks blood schizonticidal activity.
A vehicle control monkey and a positive drug control (primaquine) monkey are included in each group of inoculated monkeys.
The effect of the test drug is determined by counting blood parasites. Parasite counts are made daily through day 20, and every two days thereafter. Initially a clearance of blood parasites is observed due to the blood schizonticidal action of chloroquine. […] If there is no relapse within 20 days of the initial clearance of parasitemia, the monkey is splenectomized and its parasitemia followed for an additional 30 days. If there is no relapse within this period, the experiment is terminated and the monkey is considered "cured". Alternately, in some experiments, negative parasitemia was followed for 100 days without prior splenectomy. It has been determined that the splenectomy and non-splenectomy methods yield virtually identical results.
Primaquine diphosphate cures over 90% of monkeys in this test system when administered at a dose of 1.3 mg/kg of salt per day for 7 days ([…]) in combination with chloroquine.

[3] = test system: Chesson strain of P. vivax; test: Antimalarial activity against (trophozoite-induced) infections of the Chesson strain of P. vivax in the Aotus monkey; format: in vivo
P. berghei yoelli = test: Causal prophylactic activity against sporozoite induced P. berghei yoelli in the mouse; format: in vivo; conditions: subcutaneous
methemoglobin = format: in vivo, Dog
Experimental: ^a Primaquine, Comparative Compound, or Compound X, were administered
orally by capsule for four days on days 0, 1, 2 and 3 at a dose of 3 mg/k
primaquine base per day or the molar equivalent.
^e Total methemoglobin production expressed as mg of MHb/ml of
blood/hr for a total of 2 days after administration of the first dose.
^f Area under the % methemoglobin versus time curve (AUC).

[4] = Acute toxicity in the rat by oral or intraperitoneal administration; conditions: Rat
[5] = Table 1, P. berghei, Rane Mouse Test, 160 mg/kg
[6] = P. cynomolgi, 0.316 mg/kg (× 7)
[7] = oral capsule, days 0-3, 3 mg/kg primaquine base per day or molar equivalent, means differ significantly (p <.05)
[8] = text, listed as 5-(4-fluorophenoxy)-primaquine
[9] = text, listed as 5-(4-fluorophenoxy)primaquine

COc1cc(NC(C)CCCN)c2nc(Oc3ccc(Cl)cc3)cc(C)c2c1Oc1cccc(C(F)(F)F)c1 (stereo not drawn) [Analog 2]
Activity in words ([1]; Table 8, P. berghei): Inactive | Toxicity in words ([1]; Table 8, P. berghei): non-toxic

COc1cc(NC(C)CCCN)c2nccc(C)c2c1 (stereo not drawn) [4-methylprimaquine diphosphate, 4-methylprimaquine]
minimal effective dose ([1]; read-out: active dose (active only at)): 160 mg/kg | minimal effective dose ([1]; curative only at this toxic dose, read-out: curative dose, suppressive test): 640 mg/kg | suppressive activity in words [1]: very weak activity at non-toxic dose levels | ΔMST [1, 5]: 9 days | ΔMST ([1]; Table 1, P. berghei, Rane Mouse Test, 320 mg/kg): 10 days | ΔMST ([1]; Table 4, 160 mg/kg): 9 days | ΔMST ([1]; Table 4, 320 mg/kg): 10 days | radical curative activity compared with primaquine, in words [2]: comparable to primaquine and somewhat greater in potentcy; also recorded: slightly more effective than primaquine | radical curative activity in words ([2]; 0.316 mg/kg): inactive | Cures ([2]; 1.0 mg/kg): 100% | Radical Curative Activity, Cures (C) [2, 6]: 0/4 | Radical Curative Activity, Cures (C) ([2]; P. cynomolgi, 1.0 mg/kg (× 7)): 2/2

COc1cc(NC(C)CCCN)c2nccc(C)c2c1Oc1cccc(C(F)(F)F)c1.O=C(O)CCC(=O)O (stereo not drawn) [Comparative Compound, 8-[(4-amino-1-methylbutyl)amino]-6-methoxy-4-methyl-5-(3-trifluoromethylphenoxy)quinoline succinate]
ΔMST ([1]; Table 4, 5 mg/kg): 6 days | ΔMST ([1]; Table 4, 10 mg/kg): 4 days | ΔMST ([1]; Table 4, 20 mg/kg): 10 days | Cures ([2]; Table 2, P. cynomolgi, Rhesus, 0.0316 mg/kg × 7 of salt): 0/2 | Cures ([2]; Table 2, P. cynomolgi, Rhesus, 0.10 mg/kg × 7 of salt): 0/2 | Cures ([2]; Table 2, P. cynomolgi, Rhesus, 0.316 mg/kg × 7 of salt): 2/2 | Cures ([2]; Table 2, P. cynomolgi, Rhesus, 1.0 mg/kg × 7 of salt): 2/2 | Molar Primaquine Index by Regression Analysis ([2]; Table 2, ratio of molar ED50, relative to primaquine): 6.8 | Cures ([3]; 1 mg/kg × 3 of base): 1/3 | Cures ([3]; 2 mg/kg × 3 of base): 5/5 | Cures ([3]; 4 mg/kg × 3 of base): 4/4 | Cures ([3]; 16 mg/kg × 3 of base): 3/3 | Cures (P. berghei yoelli; 2.5 mg/kg of salt): 6/15 | Cures (P. berghei yoelli; 10 mg/kg of salt): 8/20 | Cures (P. berghei yoelli; 40 mg/kg of salt): 13/15 | Cures (P. berghei yoelli; 160 mg/kg of salt): 5/5 | increase of peak methemoglobin level versus Compound X (methemoglobin; Table 7, equimolar doses): 56% | peak level of methemoglobin (methemoglobin; Table 7, equimolar doses): 25% | Peak % MHb (methemoglobin; [7]): 25.3 ± 8.30% | Slope of MHb Formation (methemoglobin; [7]): 0.55 ± 0.28 | Time of Peak MHb (methemoglobin; [7]): 9.00 ± 1.73 days | MHb Disappearance Half-Time (methemoglobin; oral capsule, days 0-3, 3 mg/kg primaquine base per day or molar equivalent, no difference in the means): 9.14 ± 2.42 days | MHb Production as AUC Corrected for Baseline (methemoglobin; total methemoglobin production, oral capsule, days 0-3, 3 mg/kg primaquine base per day or molar equivalent, means differ significantly (p <.05)): 14,566 ± 5,475 mg of MHb/ml of blood/hr | LD50 (95% Confidence Limit) ([4]; female, I.P.): 54 (42-71) mg/kg (Salt) | LD50 (95% Confidence Limit) ([4]; female, oral): 401 (368-447) mg/kg (Salt) | LD50 (95% Confidence Limit) ([4]; male, I.P.): 86 (65-109) mg/kg (Salt)

COc1cc(NC(C)CCCN)c2nc(OCc3ccc(Cl)cc3)cc(C)c2c1Oc1cccc(C(F)(F)F)c1 (stereo not drawn) [Analog 3]
Activity in words ([1]; Table 8, P. berghei): Inactive | Toxicity in words ([1]; Table 8, P. berghei): non-toxic

COc1cc(NC(C)CCCN)c2nc(O)cc(C)c2c1Oc1cccc(C(F)(F)F)c1 (stereo not drawn) [Analog 1]
Activity in words ([1]; Table 8, P. berghei): Inactive | Toxicity in words ([1]; Table 8, P. berghei): non-toxic

COc1cc(NC(C)CCCN)c2ncccc2c1Oc1ccc(F)cc1 (stereo not drawn) [5-(4-Fluorophenoxy)primaquine citrate, 5-(4-fluorophenoxy)-primaquine]
ΔMST ([1]; Table 1, P. berghei, Rane Mouse Test, 80 mg/kg): 7.0 days | ΔMST [1, 5]: 9 days | suppressive activity in words [1, 8]: active (and non-toxic) in mice at the high dose levels of 320 and 640 mg/kg | suppressive activity in words [1, 9]: not an effective suppressive drug | Radical Curative Activity, Cures (C) [2, 6]: 0/2 | Radical Curative Activity, Cures (C) ([2]; P. cynomolgi, 1.0 mg/kg (× 7)): 1/3 | Radical Curative Activity, Cures (C) ([2]; P. cynomolgi, 3.16 mg/kg (× 7)): 1/1 | radical curative activity compared with primaquine, in words [2, 8]: no more active than primaquine in the Rhesus model as a radical curative drug | radical curative activity compared with primaquine, in words [2, 9]: not significantly better than that of primaquine

COc1cc(NC(C)CCCN)c2nc(Cl)cc(C)c2c1Oc1cccc(C(F)(F)F)c1 (stereo not drawn) [Analog 4]
Cures (C) ([1]; Table 8, number of 5 mice, 160 mg/kg): 1 | Cures (C) ([2]; P. cynomolgi, 0.1 mg/kg (×7)): 0/1 | Cures (C) ([2]; P. cynomolgi, 0.316 mg/kg (×7)): 1/2 | Cures (C) ([2]; P. cynomolgi, 1.0 mg/kg (×7)): 2/2
